# Like-named read-outs stand apart in the source and are kept apart here.
# Assays:
# [1] = overweight individuals; cited from earlier work
# seizures [2] = details: several rodent models of epilepsy; cited from earlier work
# [3] = Weight loss in patients treated with topiramate as adjunctive therapy in epilepsy; assay type: in vivo, human
# Experimental: Further, carboxylic acids and aldehydes of the formulae RCOOH and RCHO may be reduced to compounds of the formula RCH2OH by standard reduction techniques, e.g. reaction with lithium aluminum hydride, sodium borohydride or borane-THF complex in an inert solvent such a diglyme, THF or toluene at a temperature of about 0° to 100° C., e.g. as described by H. O. House in “Modern Synthetic Reactions”, 2nd Ed., pages 45 to 144 (1972). In patients treated with topiramate as an adjunctive therapy in epilepsy (n=1319), mean weight loss of 4.6% of baseline weight was observed. The mean daily dosage of topiramate was 621.9 mg/day and the mean duration of dosing was 688.8 days. […] On topiramate treatment, there is gradual weight loss over time, with maintenance of the weight lost to 24 months of therapy; thus the mean percentage decrease in weight for all subjects (n=1319) was 4.6%, with similar weight loss maintained at one year (4.9%) and two years (4.5%) of treatment. This pattern is also seen in those patients with weight in excess of 100 kg at baseline (n=127), who lost a mean of 8.4% weight overall, with loss of 9.4% at one year and 9.9% at two years.
# [4] = system: simple and complex partial seizures and secondarily generalized seizures; details: adjunctive therapy or monotherapy, human epilepsy; cited from earlier work
# seizures [5] = details: animal model of kindled epilepsy; cited from earlier work
structure (smiles),measurement,setting,value
"CC1(C)O[C@@H]2[C@@H](CO[C@@]3(COS(N)(=O)=O)OC(C)(C)O[C@@H]23)O1 [topiramate, 2,3:4,5-bis-O-(1-methylethylidene)-β-D-fructopyranose sulfamate]",weight reduction,[1],effectively reduce the weight
same,seizure block,seizures [2],effectively block seizures
same,mean percentage decrease in weight,"[3]; all subjects (n=1319), at one year of treatment",4.9%
same,mean percentage decrease in weight,"[3]; all subjects (n=1319), at two years of treatment",4.5%
same,mean weight loss of baseline weight,"[3]; all subjects (n=1319), overall, mean daily dosage 621.9 mg/day, mean duration of dosing 688.8 days",4.6%
same,mean decrease in weight,"[3]; subjects >100 kg at baseline (n=127), at one year",9.4%
same,mean decrease in weight,"[3]; subjects >100 kg at baseline (n=127), at two years",9.9%
same,mean decrease in weight,"[3]; subset of subjects weighing >100 kg at baseline (n=127), overall, mean daily dose 873.5 mg/day, mean duration of dosing 881.8 days",8.4%
same,efficacy in treating seizures,[4],effective as adjunctive therapy or as monotherapy
same,seizure block,seizures [5],effectively block seizures

# From patent US20020052325A1, “Anticonvulsant derivatives useful in maintaining weight loss” (priority 1999, published 2002)
